# Results published in US6376747B1, “Plant-derived map kinase kinase” (Her Majesty the Queen in right of Canada as represented by …, priority 1999, dated 2002).
# Like-named read-outs stand apart in the source and are kept apart here.
# How the values were obtained:
# [1] = tested on: tMEK2^MUT-induced gene activation (PR1b1, PR3, Twi1, ER5); assay: Effect of MAPK inhibitors on tMEK2^MUT-induced gene activation in tomato protoplasts; assay type: cell-based, Tomato (Lycopersicon esculentum cv Bonny Best); conditions: for effect on all four genes previously activated by tMEK2^MUT: inhibitor at 1 μM in protoplast incubation buffer, genes PR1b1, PR3, Twi1, ER5 (FIG. 6); for effect on tMEK2^MUT-activated PR3 and ER5 genes / effect on tMEK2^MUT-activated PRlbl or Twi1 genes: 350 nM for SB 202190, 1 μM for SB 203580 in protoplast incubation buffer (FIG. 6)
# Description: Kinase inhibitors at the concentration of 1 μM for staurosporine, 350 nM for SB 202190 and 1 μM for PD 98059, SB 203580 and SB 202474 were included in the proteoplast incubation buffer.
# The protoplasts were resuspended in electroporation buffer containing 150 mM MgCl2 and 0.4 M mannitol at a density of 1×10^6 protoplasts/ml and co-electroporated with […] of pTZ19 carrying tMEK2 gene and pJD300 carrying luciferase gene in a total volume of 500 μl as described by Leckie (1994) with some modifications. Electroporation was performed at 200 volts and 100 μF (Gene Pulser II, Bio-Rad). Protoplasts were then allowed to recover on ice in the dark for 10 min followed by centrifugation at 500 g for 5 min. After removal of the supernatant, the protoplast pellet, with about 500 μl of buffer, was supplemented with another 500 μl protoplast incubation buffer. Protoplasts were incubated in the dark at 30° C. for 24 hr.
# (§1) Kinase inhibitors (CalBiochem, San Diego, Calif.) at the concentration of 1 μM for staurosporine, 350 nM for SB 202190 and 1 μM for PD 98059, SB 203580 and SB 202474, when applicable, were included in the protoplast incubation buffer.
# RT-PCR was as described above. The number of PCR cycles corresponded to the high end of the range in which a linear increase in products could be detected (generally 14-16 cycles were used). Reaction products were separated on 1.0% agarose gels. Southern blot analysis was used to estimate levels of specific amplified products. Equivalence of cDNA in different samples was verified using PCR reactions for actin. Primers were designed for PCR according to published sequences for tomato PR-lbl, chitinase, Twit, ER5 and actin (Tornero et al., 1997; Danhash et al., 1993; O'Donnell et al., 1998; Zegzoutti et al. 1997; Moniz de Sa and Drouin, 1996).
# To study divergence of the signal pathways downstream of tMEK2 the influence of […] expression in tomato protoplasts was examined in the presence of a broad protein kinase inhibitor (staurosporine) and inhibitors specific to the p38 class MAPK (SB 202190 or SB 203580). Staurosporine inhibited all four genes that were previously activated by tMEK2^MUT; whereas, inhibitors of p38 class MAPK inhibited the PR3 and ER5 genes but not PRlbl or Twi1. […] The results, shown in FIG. 6, are consistent with the divergence of signal pathway downstream of tMEK2. One of these pathways could include a p38 class MAPK.
# [2] = tested on: tomato leaf mesophyll protoplasts; assay: Protoplast viability in the presence of kinase inhibitors; assay type: cell-based, Tomato (Lycopersicon esculentum cv Bonny Best); conditions: 1 μM staurosporine, 350 nM SB 202190, 1 μM PD 98059, SB 203580 and SB 202474; data not shown
# Description: as §1
# [3] = tested on: myelin basic protein
# [4] = target: myelin basic protein; remark: listed apart in the source
# [5] = tested on: PR1b1, PR3 (chitinase) and Twi1 genes; assay: Tomato protoplast transient expression, quantitative RT-PCR of pathogenesis-related genes; assay type: cell-based, Tomato (Lycopersicon esculentum cv Bonny Best); conditions: transient expression driven by tCUPΔ promoter after electroporation, 24 hr incubation, quantitative RT-PCR (FIG. 4)
# Description: To examine the effects of tMEK2^WT and tMEK2^MUT on the activation of pathogenesis-related (PR) or other pathogen-inducible genes a tomato protoplast transient expression system was developed. Chimeric genes, tCUPΔ-tMEK2^WT-nos and tCUPΔ-tMEK2^MUT-nos, were constructed using the storing constitutive promoter, tCUPΔ, which was derived from the tCUP promoter as by modification of the mRNA leader sequence described above. After electroporation, transient expression of potential target genes was detected by quantitative RT-PCR. The genes analysed included PRlbl, which is activated by tomato mosaic virus (Tornero et al., 1997); PR3 (chitinase), which is activated during an incompatible C. fulvam-tomato interaction (Danhash et al., 1993); and Twi, which is a pathogen- and would-inducible gene recently identified in tomato (O'Donnell, et al., 1998).
# Tomato (Lycopersicon esculentum cv Bonny Best) were grown at 80% relative humidity in peat soil in growth cabinets programmed for 16 hr days at 25° C. and 8 hr nights at 22° C. Light intensity was controlled at 25 pE m-2 S-1 emitted from “cool white” fluorescent lamps (Philip Canada, Scarborough, Ontario). […]
# (§2) RT-PCR was as described above. The number of PCR cycles corresponded to the high end of the range in which a linear increase in products could be detected (generally 14-16 cycles were used). […]
# [6] = tested on: ER5 gene; assay: Tomato protoplast transient expression, quantitative RT-PCR of wound-inducible gene ER5; assay type: cell-based, Tomato (Lycopersicon esculentum cv Bonny Best); conditions: transient expression in tomato protoplasts, quantitative RT-PCR (FIG. 5b)
# Description: Tomato (Lycopersicon esculentum cv Bonny Best) were grown at 80% relative humidity in peat soil in growth cabinets programmed for 16 hr days at 25° C. and 8 hr nights at 22° C. Light intensity was controlled at 25 pE m-2 S-1 emitted from “cool white” fluorescent lamps (Philip Canada, Scarborough, Ontario). The youngest fully expanded leaves were surface sterilized for 5 min in 4% sodium hypochlorite and rinsed three times with sterile water. The lower epidermis was gently rubbed with Carborundum, rinsed with sterile water and leaf fragments of ca. 1 cm^2 were floated with exposed surface facing an enzyme solution containing 0.15% macerozyme R10 (Yakult Honsha Co., Japan), 0.3% Cellulase “Onozuka” Rio (Yakult Honsha Co., Japan), 0.4 M sucrose in K3 medium (Maliga et. al., 1973). After overnight incubation at 30° C., the enzyme-protoplast mixture was filtered through a 100 μm nylon sieve, centrifuged at 500 g for 5 min. and floated protoplasts were collected and washed twice with W5 medium (Maliga et.al., 1973). The protoplasts were kept on ice in W5 medium for 2 hr before transformation. […]
# as §2
molecule,measurement,setting,value
COc1cccc(-c2cc(=O)c3ccccc3o2)c1N [PD 98059],effect on all four genes previously activated by tMEK2^MUT,[1],no effects
CCc1nc(-c2ccc(OC)cc2)[nH]c1-c1ccncc1 [SB202474],effect on all four genes previously activated by tMEK2^MUT,[1],no effects
same,change of protoplast viability,[2],did not change
Oc1ccc(-c2nc(-c3ccc(F)cc3)c(-c3ccncc3)[nH]2)cc1 [SB 202190],effect on tMEK2^MUT-activated PR3 and ER5 genes,[1],inhibited
same,effect on tMEK2^MUT-activated PRlbl or Twi1 genes,[1],not
C[S+]([O-])c1ccc(-c2nc(-c3ccc(F)cc3)c(-c3ccncc3)[nH]2)cc1 (centres unmarked) [SB 203580],effect on tMEK2^MUT-activated PR3 and ER5 genes,[1],inhibited
same,effect on tMEK2^MUT-activated PRlbl or Twi1 genes,[1],not
same,change of protoplast viability,[2],did not change
"CN[C@@H]1C[C@H]2O[C@@](C)([C@@H]1OC)n1c3ccccc3c3c4c(c5c6ccccc6n2c5c31)C(=O)NC4 [Staurosporine, staurosporine]",effect on all four genes previously activated by tMEK2^MUT,[1],inhibited
same,change of protoplast viability,[2],did not change
GST-tMEK2^MUT (recombinant glutathione-S-transferase fusion of tMEK2 with serine221 and threonine226 replaced with aspartic acid),"substrate phosphorylation (in vitro kinase assay, SDS-PAGE, autoradiography)",[3],Both the wild type and mutant forms of the tMEK2 enzyme phosphorylated myelin basic protein (MPB) in vitro
GST-tMEK2^WT (recombinant glutathione-S-transferase fusion of wild type tomato cv. Bonny Best MAP kinase kinase tMEK2) (protein) MKKGSFAPNLKLSLPPPDEVALSKFLTESGTFKDGDLLVNRDGVRIVSQSEVAAPSVIQPSDNQLCLADFEAVKVIGKGNGGIVRLVQHKWTGQFFALKVIQMNIDESMRKHIAQELRINQSSQCPYVVICYQSFFDNGAISLILEYMDGGSLADFLKKVKTIPERFLAVICKQVLKGLWYLHHEKHIIHRDLKPSNLLINHRGDVKITDFGVSAVLASTSGLANTFVGTYNYMSPERISGGAYDYKSDIWSLGLVLLECATGHFPYKPPEGDEGWVNVYELMETIVDQPEPCAPPDQFSPQFCSFISACVQKHQKDRLSANDLMSHPFITMYDDQDIDLGSYFTSAGPPLATLTEL,"substrate phosphorylation (in vitro kinase assay, SDS-PAGE, autoradiography)",[4],Both the wild type and mutant forms of the tMEK2 enzyme phosphorylated myelin basic protein (MPB) in vitro
"tMEK2^WT: wild type MAPKK gene tMEK2 isolated from tomato cv. Bonny Best, expressed from tCUPΔ promoter (protein, left off: a dimerising Fc or GST) MKKGSFAPNLKLSLPPPDEVALSKFLTESGTFKDGDLLVNRDGVRIVSQSEVAAPSVIQPSDNQLCLADFEAVKVIGKGNGGIVRLVQHKWTGQFFALKVIQMNIDESMRKHIAQELRINQSSQCPYVVICYQSFFDNGAISLILEYMDGGSLADFLKKVKTIPERFLAVICKQVLKGLWYLHHEKHIIHRDLKPSNLLINHRGDVKITDFGVSAVLASTSGLANTFVGTYNYMSPERISGGAYDYKSDIWSLGLVLLECATGHFPYKPPEGDEGWVNVYELMETIVDQPEPCAPPDQFSPQFCSFISACVQKHQKDRLSANDLMSHPFITMYDDQDIDLGSYFTSAGPPLATLTEL","activation of tomato PRlbl, chitinase and Twil genes",[5],no effect
same,activation of ER5 gene,[6],did not
